Results published in ChEMBL document CHEMBL1123676, “Synthetic and enzyme inhibition studies of pepstatin analogues containing hydroxyethylene and ketomethylene dipeptide isosteres” (J Med Chem, 1987).
pKi: −log10 of the molar value. Non-standard residues stand in square brackets, D forms with d. Residues, ends and D or L forms follow the SMILES beside them. ξ: configuration not given here. *: point of attachment. Cbz = O=C(OCc1ccccc1)*; ξL = CC(C)CC(N)C(=O)O; ξA = CC(N)C(=O)O

Tests used:
[1] = Ratio of kinetic constant kcat / KM of porcine pepsin
Pepsin A (Sus scrofa) [2] = biological target: Pepsin A (Sus scrofa) (UniProt P00791); assay: The kinetic constant (Kcat)of porcine pepsin substrate Z-His-Phe-Phe-oMe was determined
Pepsin A (Sus scrofa) [3] = biological target: Pepsin A (Sus scrofa) (UniProt P00791); assay: The kinetic constant (Kcat)of porcine pepsin substrate Z-His-Phe-Leu-oMe was determined
Pepsin A [4] = biological target: T1, Pepsin A (Sus scrofa, UniProt P00791); assay: Inhibition of porcine pepsin
Pepsin A (Sus scrofa) [5] = biological target: Pepsin A (Sus scrofa) (UniProt P00791); assay: Slow binding inhibition characteristic of the pepstatin-pepsin interaction; - indicates that the binding is not slow.
Pepsin A (Sus scrofa) [6] = biological target: Pepsin A (Sus scrofa) (UniProt P00791); assay: The kinetic constant (Kcat)of porcine pepsin substrate Z-His-Phe-Ala-oMe was determined
Pepsin A (Sus scrofa) [7] = biological target: Pepsin A (Sus scrofa) (UniProt P00791)
Pepsin A [8] = biological target: T1, Pepsin A; assay: Inhibitory activity against porcine pepsin substrate Z-His-Phe-DPhe-oMe was determined
Pepsin A (Sus scrofa) [9] = biological target: Pepsin A (Sus scrofa) (UniProt P00791); assay: Slow binding inhibition characteristic of the pepstatin-pepsin interaction; indicates that the binding is not slow.
Pepsin A (Sus scrofa) [10] = biological target: Pepsin A (Sus scrofa) (UniProt P00791); remark: listed apart in the source
Pepsin A (Sus scrofa) [11] = biological target: Pepsin A (Sus scrofa) (UniProt P00791); assay: The kinetic constant (Kcat)of porcine pepsin substrate Z-His-Phe-Gly-oMe was determined
Pepsin A [12] = biological target: T1, Pepsin A; assay: Inhibitory activity against porcine pepsin was determined

T1 sequence (P00791 whole entry): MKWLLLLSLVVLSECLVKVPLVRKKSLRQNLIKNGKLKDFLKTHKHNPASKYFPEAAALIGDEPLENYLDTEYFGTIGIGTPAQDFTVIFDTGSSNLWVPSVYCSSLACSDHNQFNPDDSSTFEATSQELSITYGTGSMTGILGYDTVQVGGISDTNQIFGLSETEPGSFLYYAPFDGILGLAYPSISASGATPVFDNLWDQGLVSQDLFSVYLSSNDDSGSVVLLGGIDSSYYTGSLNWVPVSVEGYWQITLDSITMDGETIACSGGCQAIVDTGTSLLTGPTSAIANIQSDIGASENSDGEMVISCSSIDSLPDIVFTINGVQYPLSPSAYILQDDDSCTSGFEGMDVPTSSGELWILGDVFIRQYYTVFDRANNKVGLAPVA
Sequence of Pepsin A (Sus scrofa) (P00791 60-385 limits assumed): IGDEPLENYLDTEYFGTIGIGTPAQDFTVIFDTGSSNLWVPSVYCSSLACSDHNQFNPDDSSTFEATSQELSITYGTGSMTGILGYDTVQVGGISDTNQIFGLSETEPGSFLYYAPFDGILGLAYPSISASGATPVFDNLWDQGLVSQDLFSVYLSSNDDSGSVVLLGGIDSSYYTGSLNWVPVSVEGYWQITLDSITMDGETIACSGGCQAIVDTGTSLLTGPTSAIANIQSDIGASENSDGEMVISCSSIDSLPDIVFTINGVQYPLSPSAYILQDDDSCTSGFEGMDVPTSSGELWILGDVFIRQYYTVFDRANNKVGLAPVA

Structure (SMILES) | pKi (Pepsin A [4]) | Slow binding (Pepsin A (Sus scrofa) [5]) | other results
COC(=O)C(Cc1ccccc1)NC(=O)[C@H](Cc1ccccc1)NC(=O)[C@H](Cc1c[nH]cn1)NC(=O)OCc1ccccc1 (stereo not given in full) | – | – | Ratio [1]: 520; k cat (Pepsin A (Sus scrofa) [2]): 170 ms-1
COC(=O)C(CC(C)C)NC(=O)[C@H](Cc1ccccc1)NC(=O)[C@H](Cc1c[nH]cn1)NC(=O)OCc1ccccc1 (stereo partly drawn) (Cbz-His-Phe-[ξL]-OMe) | – | – | Ratio [1]: 10; k cat (Pepsin A (Sus scrofa) [3]): 5.2 ms-1
COC(=O)C(C)NC(=O)[C@H](Cc1ccccc1)NC(=O)[C@H](Cc1c[nH]cn1)NC(=O)OCc1ccccc1 (stereo partly drawn) (Cbz-His-Phe-[ξA]-OMe) | – | – | Ratio [1]: 2.1; k cat (Pepsin A (Sus scrofa) [6]): 3.7 ms-1
CC(C)CCNC(=O)C(C)NC(=O)C(CC(=O)[C@H](CC(C)C)NC(=O)C(NC(=O)CC(C)C)C(C)C)Cc1ccccc1 (stereo not given in full) | 7.14 | binding is not slow | –
CC(C)CCNC(=O)C(C)NC(=O)[C@@H](CC(=O)[C@H](CC(C)C)NC(=O)C(NC(=O)CC(C)C)C(C)C)Cc1ccccc1 (stereo not given in full) | 6.07 | binding is not slow | –
COC(=O)[C@@H](Cc1ccccc1)NC(=O)[C@H](Cc1ccccc1)NC(=O)[C@H](Cc1c[nH]cn1)NC(=O)OCc1ccccc1 | – | – | pKi (Pepsin A [8]): 3.55
CC(C)CCNC(=O)C(C)NC(=O)[C@H](Cc1ccccc1)C[C@H](O)[C@H](CC(C)C)NC(=O)C(NC(=O)CC(C)C)C(C)C (stereo not given in full) | 6.85 | – | Slow binding (Pepsin A (Sus scrofa) [9]): indicates that the binding is not slow
CC(C)CCNC(=O)C(C)C[C@H](O)[C@H](CC(C)C)NC(=O)C(NC(=O)CC(C)C)C(C)C (stereo not given in full) | 7.57 | – | Slow binding (Pepsin A (Sus scrofa) [10]): binding is not slow
CC(C)CCNC(=O)C(C)NC(=O)C(Cc1ccccc1)C[C@H](O)[C@H](CC(C)C)NC(=O)C(NC(=O)CC(C)C)C(C)C (stereo not given in full) | 8.60 | – | –
COC(=O)CNC(=O)[C@H](Cc1ccccc1)NC(=O)[C@H](Cc1c[nH]cn1)NC(=O)OCc1ccccc1 (Cbz-His-Phe-Gly-OMe) | – | – | Ratio [1]: 1.3; k cat (Pepsin A (Sus scrofa) [11]): 2.1 ms-1
CC(C)CCNC(=O)C(C)NC(=O)C[C@H](O)C(CC(C)C)NC(=O)C(NC(=O)CC(C)C)C(C)C (stereo not given in full) | – | – | pKi (Pepsin A [12]): 8.52
CC(C)CCNC(=O)CNC(=O)C[C@H](O)C(CC(C)C)NC(=O)C(NC(=O)CC(C)C)C(C)C (stereo not given in full) | 7.25 | binding is not slow | –

The next lines start with results.

pKi (Pepsin A [4]) | Slow binding (Pepsin A (Sus scrofa) [5]) | Structure (SMILES) | other results
7.25 | binding is not slow | CC(C)CCNC(=O)C(C)NC(=O)CC(=O)C(CC(C)C)NC(=O)C(NC(=O)CC(C)C)C(C)C (stereo not given) | –
7.30 | – | CC(C)CCNC(=O)C(C)NC(=O)CC[C@H](O)[C@H](CC(C)C)NC(=O)C(NC(=O)CC(C)C)C(C)C (stereo not given in full) | Slow binding (Pepsin A (Sus scrofa) [7]): binding is not slow
5.67 | binding is not slow | CC(C)CCNC(=O)C(C)NC(=O)CCC(=O)[C@H](CC(C)C)NC(=O)C(NC(=O)CC(C)C)C(C)C (stereo not given in full) | –
8.52 | – | CC(C)CCNC(=O)C(C)NC(=O)C(C)C[C@H](O)[C@H](CC(C)C)NC(=O)C(NC(=O)CC(C)C)C(C)C (stereo not given in full) | –
7.57 | binding is not slow | CC(C)CCNC(=O)C(C)NC(=O)C(C)CC(=O)[C@H](CC(C)C)NC(=O)C(NC(=O)CC(C)C)C(C)C (stereo not given in full) | –
